This is an account of results in ChEMBL document CHEMBL1152560, “Substituted 2-arylbenzothiazoles as kinase inhibitors: hit-to-lead optimization” (Bioorg Med Chem, 2009).

In experiment [1] the target is Tyrosine-protein kinase HCK (Homo sapiens) (UniProt P08631). In words: Residual activity of HCK at 1 uM by microplate scintillation counting.
Experiment [2] concerns the target Macrophage colony-stimulating factor 1 receptor (Homo sapiens) (UniProt P07333). In words: Residual activity of CSF1R at 0.1 uM by microplate scintillation counting.
Experiment [3] concerns the target Tyrosine-protein kinase CSK (Homo sapiens) (UniProt P41240). In words: Residual activity of CSK at 0.1 uM by microplate scintillation counting.
For experiment [4], the target named is T1, Interleukin-1 receptor-associated kinase 4 (Homo sapiens) (UniProt Q9NWZ3).
T1 sequence (whole entry): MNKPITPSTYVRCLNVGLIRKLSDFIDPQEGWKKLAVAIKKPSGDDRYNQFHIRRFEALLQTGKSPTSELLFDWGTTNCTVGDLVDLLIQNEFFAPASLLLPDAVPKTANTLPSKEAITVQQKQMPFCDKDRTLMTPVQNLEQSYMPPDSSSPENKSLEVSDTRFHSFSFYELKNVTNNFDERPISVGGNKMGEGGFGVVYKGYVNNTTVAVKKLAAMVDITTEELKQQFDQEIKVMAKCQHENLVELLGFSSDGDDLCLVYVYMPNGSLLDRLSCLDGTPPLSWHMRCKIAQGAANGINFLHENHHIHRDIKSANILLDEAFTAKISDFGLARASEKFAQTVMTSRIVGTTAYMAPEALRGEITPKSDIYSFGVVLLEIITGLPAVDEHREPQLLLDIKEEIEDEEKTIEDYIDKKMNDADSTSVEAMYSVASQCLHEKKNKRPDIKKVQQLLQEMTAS
Briefly: Residual activity of IRAK4 at 1 uM by microplate scintillation counting.

Experiment [5] deals with Platelet-derived growth factor receptor beta (Homo sapiens, UniProt P09619). In words: Residual activity of PDGFRbeta at 1 uM by microplate scintillation counting.
Experiment [6] addresses T2, Serine/threonine-protein kinase TBK1 (Homo sapiens) (UniProt Q9UHD2).
T2 sequence (whole entry): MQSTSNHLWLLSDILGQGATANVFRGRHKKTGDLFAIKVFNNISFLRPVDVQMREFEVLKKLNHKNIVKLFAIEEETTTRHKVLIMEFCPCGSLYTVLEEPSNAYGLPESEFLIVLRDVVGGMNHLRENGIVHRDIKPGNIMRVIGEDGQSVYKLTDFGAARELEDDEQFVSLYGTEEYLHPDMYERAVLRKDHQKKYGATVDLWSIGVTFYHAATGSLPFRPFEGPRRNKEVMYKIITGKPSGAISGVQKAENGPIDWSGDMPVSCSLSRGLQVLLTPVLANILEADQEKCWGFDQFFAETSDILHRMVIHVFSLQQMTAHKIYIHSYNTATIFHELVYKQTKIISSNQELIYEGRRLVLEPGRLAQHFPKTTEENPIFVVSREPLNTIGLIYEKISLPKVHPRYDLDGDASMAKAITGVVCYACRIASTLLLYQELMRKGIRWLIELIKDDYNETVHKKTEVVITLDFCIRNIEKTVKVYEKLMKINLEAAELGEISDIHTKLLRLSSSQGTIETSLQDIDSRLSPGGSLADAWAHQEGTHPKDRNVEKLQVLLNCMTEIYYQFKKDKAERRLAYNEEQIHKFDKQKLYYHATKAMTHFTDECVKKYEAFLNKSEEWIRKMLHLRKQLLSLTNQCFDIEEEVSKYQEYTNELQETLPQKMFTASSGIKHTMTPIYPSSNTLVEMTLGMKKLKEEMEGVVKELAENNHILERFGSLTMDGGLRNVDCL
Briefly: Residual activity of TBK1 at 1 uM by microplate scintillation counting.

The target of experiment [7] is T3, Activin receptor type-1 (Homo sapiens) (UniProt Q04771).
T3 sequence (whole entry): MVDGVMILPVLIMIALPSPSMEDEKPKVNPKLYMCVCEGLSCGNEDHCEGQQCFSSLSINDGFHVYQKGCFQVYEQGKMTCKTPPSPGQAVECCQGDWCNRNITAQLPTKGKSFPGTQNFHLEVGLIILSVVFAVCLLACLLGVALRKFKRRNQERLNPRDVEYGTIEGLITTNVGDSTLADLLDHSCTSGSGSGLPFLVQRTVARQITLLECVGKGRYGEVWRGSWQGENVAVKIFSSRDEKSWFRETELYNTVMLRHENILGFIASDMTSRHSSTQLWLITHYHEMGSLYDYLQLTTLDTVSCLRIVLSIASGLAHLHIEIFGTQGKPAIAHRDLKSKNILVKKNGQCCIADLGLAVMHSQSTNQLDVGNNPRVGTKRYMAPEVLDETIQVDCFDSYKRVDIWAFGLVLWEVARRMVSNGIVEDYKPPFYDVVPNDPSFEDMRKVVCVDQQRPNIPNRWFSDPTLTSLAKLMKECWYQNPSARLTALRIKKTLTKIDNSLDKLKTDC
Briefly: Residual activity of ACV-R1 at 10 uM by microplate scintillation counting.

Experiment [8] has as its target Activin receptor type-1-like (Homo sapiens) (UniProt P37023). Briefly: Residual activity of ACV-RL1 at 0.1 uM by microplate scintillation counting.
Experiment [9] deals with 5'-AMP-activated protein kinase catalytic subunit alpha-1 (Homo sapiens) (UniProt Q13131). Briefly: Residual activity of AMPK-alpha1 fl at 0.1 uM by microplate scintillation counting.
For experiment [10], the target named is Casein kinase I isoform gamma-2 (Homo sapiens) (UniProt P78368). In words: Residual activity of CK1gamma2 at 0.1 uM by microplate scintillation counting.
Casein kinase I isoform gamma-2 (Homo sapiens), sequence (P78368 whole entry, looked up, canonical isoform): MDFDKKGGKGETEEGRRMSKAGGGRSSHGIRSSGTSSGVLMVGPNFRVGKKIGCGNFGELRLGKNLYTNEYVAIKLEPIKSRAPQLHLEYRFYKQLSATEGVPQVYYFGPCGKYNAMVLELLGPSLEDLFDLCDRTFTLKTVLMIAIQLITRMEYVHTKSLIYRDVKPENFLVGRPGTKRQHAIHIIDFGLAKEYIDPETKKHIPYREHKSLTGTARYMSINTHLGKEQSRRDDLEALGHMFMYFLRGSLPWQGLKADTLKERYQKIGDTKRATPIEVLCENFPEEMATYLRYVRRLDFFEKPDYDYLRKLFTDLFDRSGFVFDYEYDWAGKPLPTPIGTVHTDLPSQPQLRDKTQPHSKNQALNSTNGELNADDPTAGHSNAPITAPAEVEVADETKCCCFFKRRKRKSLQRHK

Platelet-derived growth factor receptor beta, sequence (P09619 whole entry): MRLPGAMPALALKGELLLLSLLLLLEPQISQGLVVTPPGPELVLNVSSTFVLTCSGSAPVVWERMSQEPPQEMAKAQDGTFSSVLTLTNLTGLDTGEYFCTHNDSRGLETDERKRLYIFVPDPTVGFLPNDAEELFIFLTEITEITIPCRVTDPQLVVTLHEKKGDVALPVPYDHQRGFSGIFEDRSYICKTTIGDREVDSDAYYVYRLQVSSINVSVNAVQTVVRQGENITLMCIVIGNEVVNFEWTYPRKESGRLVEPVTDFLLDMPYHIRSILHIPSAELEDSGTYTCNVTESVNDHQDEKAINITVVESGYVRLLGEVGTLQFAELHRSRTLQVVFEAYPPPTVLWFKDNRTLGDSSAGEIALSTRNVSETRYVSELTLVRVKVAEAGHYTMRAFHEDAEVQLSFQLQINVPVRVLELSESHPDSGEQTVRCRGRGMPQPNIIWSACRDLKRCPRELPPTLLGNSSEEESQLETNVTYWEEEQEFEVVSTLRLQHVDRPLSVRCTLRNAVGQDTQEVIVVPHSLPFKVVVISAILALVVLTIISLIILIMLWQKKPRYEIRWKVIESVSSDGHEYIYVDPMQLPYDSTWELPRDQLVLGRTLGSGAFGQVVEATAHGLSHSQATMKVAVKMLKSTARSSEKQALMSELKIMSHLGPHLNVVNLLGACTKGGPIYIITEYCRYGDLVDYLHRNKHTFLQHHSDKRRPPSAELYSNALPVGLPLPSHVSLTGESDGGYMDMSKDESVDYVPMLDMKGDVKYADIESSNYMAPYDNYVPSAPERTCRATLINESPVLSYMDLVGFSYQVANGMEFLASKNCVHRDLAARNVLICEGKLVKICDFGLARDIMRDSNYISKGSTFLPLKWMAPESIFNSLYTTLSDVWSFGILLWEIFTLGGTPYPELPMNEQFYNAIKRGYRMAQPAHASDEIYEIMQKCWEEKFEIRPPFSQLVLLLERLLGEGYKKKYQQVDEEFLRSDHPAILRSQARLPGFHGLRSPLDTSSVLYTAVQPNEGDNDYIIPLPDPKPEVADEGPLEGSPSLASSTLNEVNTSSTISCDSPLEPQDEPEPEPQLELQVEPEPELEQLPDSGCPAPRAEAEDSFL
5'-AMP-activated protein kinase catalytic subunit alpha-1 (Homo sapiens), sequence (Q13131 whole entry, looked up, canonical isoform): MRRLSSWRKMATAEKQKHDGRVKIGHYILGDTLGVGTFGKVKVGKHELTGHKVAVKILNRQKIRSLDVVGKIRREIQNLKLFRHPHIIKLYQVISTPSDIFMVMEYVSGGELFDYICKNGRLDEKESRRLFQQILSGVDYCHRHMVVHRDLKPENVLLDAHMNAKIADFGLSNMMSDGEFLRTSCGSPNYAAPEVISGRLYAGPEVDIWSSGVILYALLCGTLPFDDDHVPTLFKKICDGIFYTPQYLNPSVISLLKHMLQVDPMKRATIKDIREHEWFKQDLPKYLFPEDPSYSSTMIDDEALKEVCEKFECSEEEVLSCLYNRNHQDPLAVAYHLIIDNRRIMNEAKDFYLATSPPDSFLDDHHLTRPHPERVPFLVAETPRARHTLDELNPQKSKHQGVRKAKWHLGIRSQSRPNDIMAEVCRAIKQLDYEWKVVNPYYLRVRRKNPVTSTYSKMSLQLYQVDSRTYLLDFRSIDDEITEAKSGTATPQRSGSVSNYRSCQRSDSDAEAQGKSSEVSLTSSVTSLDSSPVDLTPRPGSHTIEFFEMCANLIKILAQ
Tyrosine-protein kinase HCK (Homo sapiens), sequence (P08631 2-526 limits assumed): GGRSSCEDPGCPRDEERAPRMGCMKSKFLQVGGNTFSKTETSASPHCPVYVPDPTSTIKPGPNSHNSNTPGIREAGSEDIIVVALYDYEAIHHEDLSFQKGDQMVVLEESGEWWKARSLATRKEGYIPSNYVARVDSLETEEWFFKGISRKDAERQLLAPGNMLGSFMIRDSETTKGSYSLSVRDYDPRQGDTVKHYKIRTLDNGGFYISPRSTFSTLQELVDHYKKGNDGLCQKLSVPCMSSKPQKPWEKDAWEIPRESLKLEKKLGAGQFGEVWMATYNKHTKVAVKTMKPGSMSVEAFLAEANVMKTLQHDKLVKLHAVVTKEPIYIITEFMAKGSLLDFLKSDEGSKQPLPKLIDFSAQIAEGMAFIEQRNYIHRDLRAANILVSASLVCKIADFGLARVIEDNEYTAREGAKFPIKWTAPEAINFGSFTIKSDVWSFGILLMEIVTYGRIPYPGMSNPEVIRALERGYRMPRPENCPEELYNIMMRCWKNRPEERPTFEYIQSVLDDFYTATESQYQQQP
Activin receptor type-1-like (Homo sapiens), sequence (P37023 whole entry): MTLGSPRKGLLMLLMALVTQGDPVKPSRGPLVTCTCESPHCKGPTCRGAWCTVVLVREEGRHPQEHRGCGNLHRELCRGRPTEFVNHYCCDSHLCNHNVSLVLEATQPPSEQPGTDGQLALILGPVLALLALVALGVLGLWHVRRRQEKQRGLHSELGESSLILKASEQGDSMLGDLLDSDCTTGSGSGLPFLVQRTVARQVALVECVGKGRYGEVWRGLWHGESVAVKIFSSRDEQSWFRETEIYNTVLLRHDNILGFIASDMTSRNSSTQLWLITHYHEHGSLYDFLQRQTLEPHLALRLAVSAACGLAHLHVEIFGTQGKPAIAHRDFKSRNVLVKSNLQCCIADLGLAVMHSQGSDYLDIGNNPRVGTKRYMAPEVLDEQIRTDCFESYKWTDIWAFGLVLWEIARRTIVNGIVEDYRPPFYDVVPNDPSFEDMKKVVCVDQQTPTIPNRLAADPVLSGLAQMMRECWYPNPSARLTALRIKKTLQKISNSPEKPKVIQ
Tyrosine-protein kinase CSK (Homo sapiens), sequence (P41240 2-450 limits assumed): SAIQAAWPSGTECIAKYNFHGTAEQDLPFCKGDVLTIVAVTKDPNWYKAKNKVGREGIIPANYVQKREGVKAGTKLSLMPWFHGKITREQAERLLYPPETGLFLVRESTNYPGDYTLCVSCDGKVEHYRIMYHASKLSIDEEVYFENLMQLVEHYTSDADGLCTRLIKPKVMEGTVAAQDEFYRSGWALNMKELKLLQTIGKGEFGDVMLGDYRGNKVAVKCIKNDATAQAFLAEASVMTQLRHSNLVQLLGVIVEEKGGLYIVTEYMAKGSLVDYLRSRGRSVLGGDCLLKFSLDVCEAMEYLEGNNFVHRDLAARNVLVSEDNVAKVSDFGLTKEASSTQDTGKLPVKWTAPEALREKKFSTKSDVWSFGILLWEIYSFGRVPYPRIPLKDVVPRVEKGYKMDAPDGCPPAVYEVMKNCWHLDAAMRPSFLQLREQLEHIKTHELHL
Macrophage colony-stimulating factor 1 receptor (Homo sapiens), sequence (P07333 whole entry): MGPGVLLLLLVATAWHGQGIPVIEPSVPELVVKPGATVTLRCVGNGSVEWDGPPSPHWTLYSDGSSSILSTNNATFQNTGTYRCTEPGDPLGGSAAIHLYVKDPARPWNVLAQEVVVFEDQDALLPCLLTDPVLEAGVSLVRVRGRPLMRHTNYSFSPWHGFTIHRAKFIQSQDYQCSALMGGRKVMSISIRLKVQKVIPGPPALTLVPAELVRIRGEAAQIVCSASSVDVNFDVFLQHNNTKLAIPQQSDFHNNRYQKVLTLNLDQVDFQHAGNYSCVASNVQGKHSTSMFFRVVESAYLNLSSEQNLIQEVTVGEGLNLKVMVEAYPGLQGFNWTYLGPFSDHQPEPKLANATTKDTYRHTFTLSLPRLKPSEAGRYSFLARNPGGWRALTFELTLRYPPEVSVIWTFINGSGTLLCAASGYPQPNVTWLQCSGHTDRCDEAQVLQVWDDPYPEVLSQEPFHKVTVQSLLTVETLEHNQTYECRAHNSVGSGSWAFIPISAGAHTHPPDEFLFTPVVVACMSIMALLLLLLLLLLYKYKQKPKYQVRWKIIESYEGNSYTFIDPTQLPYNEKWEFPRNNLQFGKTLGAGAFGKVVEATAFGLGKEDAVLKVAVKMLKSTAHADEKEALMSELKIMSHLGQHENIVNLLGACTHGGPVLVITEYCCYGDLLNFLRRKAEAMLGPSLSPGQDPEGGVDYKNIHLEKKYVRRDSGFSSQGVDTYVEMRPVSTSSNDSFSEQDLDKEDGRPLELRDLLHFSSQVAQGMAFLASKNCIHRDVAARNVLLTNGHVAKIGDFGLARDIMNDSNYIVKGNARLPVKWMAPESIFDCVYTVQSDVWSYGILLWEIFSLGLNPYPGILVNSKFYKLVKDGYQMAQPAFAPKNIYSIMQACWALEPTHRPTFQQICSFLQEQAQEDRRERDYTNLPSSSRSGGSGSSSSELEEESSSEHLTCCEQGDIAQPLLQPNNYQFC

On to `COc1cc2c(Oc3ccc(-c4nc5ccccc5s4)cc3)ncnc2cc1OCCCN1CCCC1`, for which the residual activity in experiment [1] was found to be 116%; in [2], 120%; in [3], 111%; in experiment [4], 90%; in [5] it was 78%; in experiment [6], 92%. Besides, the residual activity came out at 81% in experiment [7], 96% in experiment [8], 101% in experiment [9] and 93% in experiment [10].
As for `COc1cc2c(Oc3ccc(-c4nc5ccccc5s4)cc3F)ncnc2cc1OCCCN1CCN(C)CC1`, the residual activity was determined as 99% in experiment [1]; 88% in experiment [2]; 104% in experiment [3]; 97% in experiment [4]; 88% in experiment [5]; 99% in [6]. Also, the residual activity was found to be 96% in [7], 92% in experiment [8], 86% in experiment [9] and 90% in [10].
In the case of `COc1cc2c(Oc3ccc(-c4nc5ccccc5s4)cc3)ncnc2cc1OCCCN1CCN(C)CC1`, the residual activity in experiment [1] stood at 93%; in experiment [2], 93%; in [3], 120%; in experiment [4] it was 91%; in experiment [5], 78%; in experiment [6], 85%. Moreover, the residual activity came out at 87% in experiment [7], 91% in experiment [8], 94% in experiment [9] and 93% in experiment [10].
